What is called IC50 is the concentration needed to halve the response being measured. A higher IC50 goes with a need for much substance.

The test system of this assay is IL-1β release upon NLRP3 activation in peripheral blood mononuclear cells (PBMC). The assay can be described thus: PBMC IC50 Determination Assay. The format is cell-based. To be noted: Homo sapiens; PBMC from buffy coats, LPS 3 h, compound 30 min, then ATP (5 mM) or nigericin (10 μM) 1 h; IL-1β in media by ELISA (Protocol A) or HTRF (Protocol B). The method, then: The compounds of the present disclosure were tested for their inhibitory activity against IL-1β release upon NLRP3 activation in peripheral blood mononuclear cells (PBMC).
Protocol A. PBMC were isolated from buffy coats by density gradient centrifugation on Histopaque-1077 (Sigma, cat no. 10771). Isolated cells were seeded into the wells of a 96-well plate and incubated for 3 h with lipopolysaccharide (LPS). Following medium exchange, the compounds of the present disclosure were added (a single compound per well) and the cells were incubated for 30 min. Next, the cells were stimulated either with ATP (5 mM) or nigericin (10 μM) for 1 h and the cell culture media from the wells were collected for further analysis.
The release of IL-1β into the media was determined by a quantitative detection of IL-1β in the media using an IL-1p enzyme-linked immunosorbent assay (ELISA) Ready-SET-Go!, eBioscience cat. No. 88-7261-88. Briefly, in a first step, high affinity binding plates (Corning, Costar 9018 or NUNC Maxisorp Cat No. 44-2404) were coated overnight at 4° C. with specific capture antibody included in the kit (anti-human IL-1β ref 14-7018-68). Subsequently, plates were blocked with blocking buffer for 1 h at room temperature (rt) and after washing with a buffer (PBS with 0.05% Tween-20) incubated with protein standard and culture media. After 2 h of incubation at rt, plates were washed and incubated with biotinylated detection antibody included in the kit (anti-human IL-1β Biotin ref. 33-7110-68) for 1 h at rt. Plates were washed and incubated with HRP-streptavidin for 30 min at rt and washed again. The signal was developed after addition of 3,3′,5,5′-tetramethylbenzidine-peroxidase (TMB) until colour appeared and the reaction was stopped by 2 M H2SO4. A microplate spectrophotometer (BioTek) was used to detect signals with 450 nm. The detection range of IL-1β ELISA was […].
Protocol B. PBMC were isolated from buffy coats by density gradient centrifugation on Histopaque-1077 (Sigma, cat no. 10771). Isolated cells were seeded into the wells (280,000 cells/well) of a 96-well plate and incubated for 3 h with lipopolysaccharide (LPS, 1 μg/mL diluted 1000× from a 1 mg/mL stock solution). The compounds of the present disclosure were added (a single compound per well) and the cells were incubated for 30 min. Next, the cells were stimulated with ATP (5 mM final concentration diluted 20× from a 100 mM stock solution) for 1 h and the cell culture media from the wells were collected for further analysis.
The release of IL-1β into the media was determined by quantitative detection of IL-1β in the media using HTRF®, CisBio cat. No. 62HIL1BPEH. Briefly, cell culture supernatant were dispensed directly into the assay plate containing antibodies labelled with the HTRF® donor and acceptor. A microplate spectrophotometer (BMG) was used to detect signals at 655 nm and 620 nm. The detection range of IL-1β HTRF® was 39-6500 μg/mL.
(An ELISA detects its analyte on a solid surface through an enzyme-linked reagent.)
The molecule `CC1CN(CC(=O)Nc2ncccn2)C(=O)c2cc(C3CC3)sc21` (centres unmarked) [Compound 70, 2-(2-Cyclopropyl-7-methyl-4-oxo-6,7-dihydrothieno[3,2-c]pyridin-5(4H)-yl)-N-(pyrimidin-2-yl)acetamide] returned an IC50 of 3 to 10 µM. As for `CCc1cc2c(s1)C(=O)N(CC(=O)Nc1ncc3c(n1)[nH]c(=O)n3C)CC21CC1` [Compound 71, 2-(2′-Ethyl-7′-oxo-5′H-spiro[cyclopropane-1,4′-thieno[2,3-c]pyridin]-6′(7′H)-yl)-N-(7-methyl-8-oxo-8,9-dihydro-7H-purin-2-yl)acetamide], the IC50 is 1 to 3 µM.

On to `CNc1nc2c(s1)C(=O)N(CC(=O)Nc1ncccn1)CC21CC1` [Compound 72, 2-(2′-(Methylamino)-4′-oxo-4′H-spiro[cyclopropane-1,7′-thiazolo[5,4-c]pyridin]-5′(6′H)-yl)-N-(pyrimidin-2-yl)acetamide], for which the IC50 lay within 3 to 10 µM.

`CCNc1nc2c(s1)C(=O)N(CC(=O)Nc1ncccn1)CC2C` (centres unmarked) [Compound 73, 2-(2-(Ethylamino)-7-methyl-4-oxo-6,7-dihydrothiazolo[5,4-c]pyridin-5(4H)-yl)-N-(pyrimidin-2-yl)acetamide] displayed an IC50 of 10 to 50 µM.

`CNc1cc2c(s1)C(=O)N(CC(=O)Nc1ncccn1)CC21CC1` [Compound 74, 2-(2′-(Methylamino)-7′-oxo-5′H-spiro[cyclopropane-1,4′-thieno[2,3-c]pyridin]-6′(7′H)-yl)-N-(pyrimidin-2-yl)acetamide] came in with an IC50 of 0.1 to 1 µM. In turn, `O=C(CN1CC2(CC2)c2cc(CC(F)F)sc2C1=O)Nc1ncccn1` [Compound 75, 2-(2′-(2,2-Difluoroethyl)-7′-oxo-5′H-spiro[cyclopropane-1,4′-thieno[2,3-c]pyridin]-6′(7′H)-yl)-N-(pyrimidin-2-yl)acetamide] showed an IC50 of 1 to 3 µM. For `O=C(CN1CC2(CC2)c2cc(C3CC3)sc2C1=O)Nc1ncc(F)cn1` [Compound 76, 2-(2′-Cyclopropyl-7′-oxo-5′H-spiro[cyclopropane-1,4′-thieno[2,3-c]pyridin]-6′(7′H)-yl)-N-(5-fluoropyrimidin-2-yl)acetamide], the IC50 lay within 0.1 to 1 µM. In turn, `C[C@@H]1CN(CC(=O)Nc2ncccn2)C(=O)c2sc(C3CC3)nc21` [Compound 77] came in with an IC50 of 1 to 3 µM.

The values above are taken from patent publication US20260008780A1, “SUBSTITUTED 3,4-DIHYDROISOQUINOLIN-1(2H)-ONE DERIVATIVES AND RELATED USES” (NodThera Limited, priority 2022, published 2026).
